Several values for one entry are separate records, joined by “and”; a condition that tells them apart may be missing. Equal values may be shown once.
Tested on: human embryonic stem cell line H9
Assay: Cytokine array analysis of cell lysates and conditioned media
Type: cell-based
Set-up: key to BMP-4 expression / BMP-6 expression / EGF expression / FGF-6 expression / Fractalkine expression / GCP-2 expression / IL-3 expression / IL-4 expression / IL-6 expression / M-CSF expression / MIG expression / Amphiregulin expression: cytokine array signal, normalized and background-subtracted
Method: The effect that Wnt-3a treatment has on cytokine expression was analyzed using a protein array. Cells of the human embryonic stem cell line H9 were cultured according to the methods described in Example 15. At passage 54, cells were differentiated in the presence of 100 ng/ml ActivinA+/−10 ng/ml Wnt3a for 2 days in 0.5% FBS DMEM/F12. Cells were subsequently cultured for an additional three days in 100 ng/mlActivin A and 2% FBS DMEM/F12. At the end of the 5th day, CXCR4 expression was determined by FACS for each treatment group.
Cell lysates were prepared from cells of each treatment group, with a mammalian cell lysis kit (Sigma-Aldrich, MO). Conditioned media from each treatment group was collected and concentrated. Cytokine array analysis was completed using Cytokine Array panels provided by RayBiotech, GA (http://www.raybiotech.com/). Table VII lists cytokine, growth factor, and receptor expression following normalization of the data and background subtraction. For each panel, positive and negative controls are also included. Th data shown are two independent samples per cell treatment group (1,2).

Q: What does the source list for Wnt-3a?
A: 1L-1beta expression (Cell conditioned media): 316.59 and 278.30; 1L-1ra expression (Cell conditioned media): 354.23 and 581.75; Acrp30 expression (Cell conditioned media): 2,795.71 and 2,302.99; AgRP expression (Cell conditioned media): 651.26 and 482.21; Amphiregulin expression (Cell conditioned media): 619.07 and 782.60; Angiogenin expression (Cell conditioned media): 57,442.48 and 54,969.04; Angiopoietin-2 expression (Cell conditioned media): 65,959.24 and 71,664.21; AxI expression (Cell conditioned media): 610.40 and 748.34; BDNF expression (Cell conditioned media): 770.08 and 715.86; BLC expression (Cell conditioned media): 337.12 and 249.80; BMP-6 expression (Cell conditioned media): 985.70 and 670.60; CK beta 8-1 expression (Cell conditioned media): 42.78 and 75.44; CNTF expression (Cell conditioned media): 787.19 and 541.51; EGF expression (Cell conditioned media): 23,331.57 and 22,768.53; Eotaxin-2 expression (Cell conditioned media): 2,156.21 and 1,445.14; Eotaxin-3 expression (Cell conditioned media): 2,140.81 and 1,480.35; FGF-6 expression (Cell conditioned media): 3,283.94 and 2,519.78; Flt-3 Ligand expression (Cell conditioned media): 511.67 and 792.98; Fractalkine expression (Cell conditioned media): 359.37 and 367.15; GCP-2 expression (Cell conditioned media): 451.78 and 362.12; GDNF expression (Cell conditioned media): 443.22 and 509.66; GM-CSF expression (Cell conditioned media): 1,808.82 and 1,446.82; I-309 expression (Cell conditioned media): 318.30 and 288.36; IFN-gamma expression (Cell conditioned media): 1,238.97 and 1,435.08; IGF-I expression (Cell conditioned media): 254.98 and 187.77; IGFBP-1 expression (Cell conditioned media): 227.60 and 155.91; IGFBP-2 expression (Cell conditioned media): 42,215.53 and 43,934.33; IGFBP-4 expression (Cell conditioned media): 18,988.34 and 13,380.14; IL-1alpha expression (Cell conditioned media): 3,999.26 and 3,545.79; IL-2 expression (Cell conditioned media): 758.10 and 881.84; IL-3 expression (Cell conditioned media): 11,345.78 and 12,174.73; IL-4 expression (Cell conditioned media): 804.30 and 673.95; IL-5 expression (Cell conditioned media): 2,120.27 and 1,713.38; IL-6 expression (Cell conditioned media): 9,774.82 and 9,991.93; IL-10 expression (Cell conditioned media): 1,625.71 and 1,129.96; IL-13 expression (Cell conditioned media): 2,522.42 and 1,807.27; IL-15 expression (Cell conditioned media): 2,495.04 and 1,981.62; IL-16 expression (Cell conditioned media): 436.38 and 405.71; LIGHT expression (Cell conditioned media): 1,346.78 and 1,108.17; Leptin expression (Cell conditioned media): 7,238.71 and 4,886.99; M-CSF expression (Cell conditioned media): 740.98 and 684.01; MCP-1 expression (Cell conditioned media): 2,015.89 and 1,567.53; MCP-2 expression (Cell conditioned media): 694.78 and 694.07; MCP-3 expression (Cell conditioned media): 701.62 and 583.42; MCP-4 expression (Cell conditioned media): 231.02 and 276.62; MIP-1-delta expression (Cell conditioned media): 474.02 and 291.71; MIP-3-alpha expression (Cell conditioned media): 208.78 and 184.41; NAP-2 expression (Cell conditioned media): 371.35 and 343.68; NT-3 expression (Cell conditioned media): 571.57 and 427.51; PARC expression (Cell conditioned media): 474.02 and 363.80; PDGF-BB expression (Cell conditioned media): 2,635.37 and 2,005.09; RANTES expression (Cell conditioned media): 682.80 and 855.01; SCF expression (Cell conditioned media): 1,394.69 and 2,155.98; SDF-1 expression (Cell conditioned media): 326.85 and 616.95; TGF-beta 1 expression (Cell conditioned media): 1,827.65 and 1,849.18; TGF-beta 3 expression (Cell conditioned media): 294.34 and 343.68; TNF-alpha expression (Cell conditioned media): 2,609.70 and 2,167.71; TNF-beta expression (Cell conditioned media): 1,701.01 and 1,637.94; bFGF expression (Cell conditioned media): 1,226.99 and 1,241.09; 1L-1beta expression (Cell lysate): 352.05 and 312.08; 1L-1ra expression (Cell lysate): 302.68 and 198.48; Acrp30 expression (Cell lysate): 601.61 and 690.66; AgRP expression (Cell lysate): 77.82 and 89.00; Angiogenin expression (Cell lysate): 619.40 and 750.85; AxI expression (Cell lysate): 88.59 and 139.03; BDNF expression (Cell lysate): 763.51 and 951.45; BLC expression (Cell lysate): 742.24 and 476.36; BMP-4 expression (Cell lysate): 348.44 and 304.48; BMP-6 expression (Cell lysate): 571.23 and 641.05; CK beta 8-1 expression (Cell lysate): 22.48 and 21.54; CNTF expression (Cell lysate): 1,382.51 and 1,060.82; EGF expression (Cell lysate): 742.24 and 984.39; Eotaxin expression (Cell lysate): 301.87 and 253.80; Eotaxin-3 expression (Cell lysate): 934.12 and 847.56; Flt-3 Ligand expression (Cell lysate): 857.45 and 795.19; Fractalkine expression (Cell lysate): 792.02 and 456.51; GCP-2 expression (Cell lysate): 593.71 and 538.86; GDNF expression (Cell lysate): 436.75 and 444.68; GM-CSF expression (Cell lysate): 1,343.17 and 1,161.75; I-309 expression (Cell lysate): 708.52 and 743.25; IFN-gamma expression (Cell lysate): 1,202.67 and 1,037.60; IGFBP-1 expression (Cell lysate): 59.41 and 85.73; IGFBP-2 expression (Cell lysate): 2,671.90 and 2,414.72; IGFBP-4 expression (Cell lysate): 4,459.85 and 4,173.19; IL-1alpha expression (Cell lysate): 1,612.93 and 1,421.89; IL-3 expression (Cell lysate): 2,119.94 and 1,497.48; IL-4 expression (Cell lysate): 625.42 and 638.94; IL-5 expression (Cell lysate): 1,245.23 and 1,167.24; IL-10 expression (Cell lysate): 1,222.75 and 1,096.30; IL-13 expression (Cell lysate): 1,486.89 and 1,407.96; IL-15 expression (Cell lysate): 1,677.16 and 1,601.79; IL-16 expression (Cell lysate): 651.11 and 668.50; Leptin expression (Cell lysate): 1,234.39 and 1,091.65; M-CSF expression (Cell lysate): 852.63 and 867.83; MCP-1 expression (Cell lysate): 1,022.03 and 1,076.03; MCP-3 expression (Cell lysate): 1,184.61 and 1,255.50; MCP-4 expression (Cell lysate): 1,380.51 and 1,606.86; MDC expression (Cell lysate): 269.36 and 280.41; MIG expression (Cell lysate): 1,113.16 and 1,137.26; MIP-1-delta expression (Cell lysate): 491.75 and 322.22; MIP-3-alpha expression (Cell lysate): 1,602.09 and 1,399.93; NT-3 expression (Cell lysate): 316.73 and 275.76; PARC expression (Cell lysate): 352.85 and 353.04; PDGF-BB expression (Cell lysate): 517.84 and 597.56; RANTES expression (Cell lysate): 724.98 and 637.25; SCF expression (Cell lysate): 1,152.50 and 1,021.13; TARC expression (Cell lysate): 372.93 and 343.33; TGF-beta 1 expression (Cell lysate): 1,426.67 and 1,240.30; TNF-alpha expression (Cell lysate): 2,851.74 and 1,285.91; TNF-beta expression (Cell lysate): 1,049.33 and 1,026.62; bFGF expression (Cell lysate): 11,722.95 and 21,398.52; IGFBP-1, TGFbeta-1 and TGFbeta-3 in cell lysates (Wnt3a treated vs Activin A only): upregulated; Angiogenin, IGFBP-1 and EGF in cell conditioned media (Wnt3 treated vs Activin A only): Noticeable upregulation

From US20100255580A1, “Differentiation of Human Embryonic Stem Cells” (LIFESCCAN, INC., priority 2007, published 2010)
